Common to all, as to format: biochemical
For one assay, the target named is T1, PRMT4 (Homo sapiens, UniProt Q86X55).
T1 sequence (Q86X55 1-608): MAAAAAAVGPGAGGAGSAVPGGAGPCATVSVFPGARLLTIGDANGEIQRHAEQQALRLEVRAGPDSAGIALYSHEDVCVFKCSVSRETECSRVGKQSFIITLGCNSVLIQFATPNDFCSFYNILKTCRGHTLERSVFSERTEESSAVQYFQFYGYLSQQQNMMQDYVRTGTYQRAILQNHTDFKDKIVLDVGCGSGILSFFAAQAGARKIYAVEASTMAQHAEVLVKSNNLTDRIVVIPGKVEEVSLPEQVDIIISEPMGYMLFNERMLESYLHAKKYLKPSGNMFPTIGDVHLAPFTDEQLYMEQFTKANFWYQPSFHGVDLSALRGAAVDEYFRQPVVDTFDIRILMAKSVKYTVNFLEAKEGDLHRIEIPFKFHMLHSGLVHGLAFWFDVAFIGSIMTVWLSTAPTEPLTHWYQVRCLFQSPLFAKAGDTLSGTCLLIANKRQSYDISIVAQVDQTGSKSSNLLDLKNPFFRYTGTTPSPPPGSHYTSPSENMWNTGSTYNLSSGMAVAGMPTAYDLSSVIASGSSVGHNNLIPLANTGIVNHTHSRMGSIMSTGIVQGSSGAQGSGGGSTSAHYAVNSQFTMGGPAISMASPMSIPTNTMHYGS
Description: radioactive assay (Reaction Biology Corp.), inhibition of PRMT4. As for the experimental part:
(§1) Next, the inhibition activity of the library was investigated for five PRMT members from type I PRMTs.
(§2) The PRMT 4, 6 and 8 methylation assays were performed by Reaction Biology corp.

In assay [1] the test system is PRMT3. Description: SAHH-coupled fluorescence assay, inhibition of PRMT3. The method, then: A fluorescence-based SAHH-coupled assay was applied to study the inhibition activity of all synthesized compounds on PRMT 1 and 3.
The PRMT3 methylation assay was performed under the following conditions in a final well volume of 100 μL: 20 mM Tris (pH=7.5), 0.01% Triton X-100, 5 μM SAHH, 0.25 μM PRMT3, 30 μM AdoMet, and 15 μM ThioGlo4. […] Fluorescence was monitored on a BMG CLARIOstar microplate reader with excitation 380 nm and emission 505 nm. Data were processed by using GraphPad Prism software 8.0. All experiments were performed in duplicate.
as §1
The PRMT3 methylation assay was performed under the following conditions in a final well volume of 100 μL: 20 mM Tris (pH=7.5), 0.01% Triton X-100, 5 μM SAHH, 0.25 μM PRMT3, 30 μM AdoMet, and 15 μM ThioGlo4. […] Fluorescence was monitored on a BMG CLARIOstar microplate reader with excitation 380 nm and emission 505 nm. Data were processed by using GraphPad Prism software 8.0.

In the next assay the target is PRMT6 (Homo sapiens, UniProt Q96LA8). Description: radioactive assay (Reaction Biology Corp.), inhibition of PRMT6. The settings on record: for PRMT6 inhibition: 10 μM. As for the experimental part: as §1, §2
The target of a further assay is T2, PRMT1 (Homo sapiens, UniProt Q99873).
T2 construct: made in house
Description: SAHH-coupled fluorescence assay, inhibition of PRMT1. In short, it runs like this:
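PRMT1 (0.1 μM) was run with 10 μM AdoMet, 5 μM SAHH and 10 μM ThioGlo4 in 2.5 mM HEPES pH 7.0, 25 mM NaCl, 25 μM EDTA, 50 μM TCEP and 0.01% Triton X-100. Fluorescence (ex 400/em 465 nm) was monitored for 15 min. Assays were done in duplicate.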

The target of the next assay is PRMT8 (Homo sapiens, UniProt Q9NR22). Nature of the assay: radioactive assay (Reaction Biology Corp.), inhibition of PRMT8. The method, then:
as §1, §2

Assay [2] has as its target PRMT3 (Homo sapiens, UniProt O60678). Description: SAHH-coupled fluorescence assay, inhibition of PRMT3. Further details: PRMT3 (residues 211-531) was cloned into the pET28a-MHL expression vector; tag of the pET28a-MHL vector (not described); made in house; host or cells: Escherichia coli BL21(DE3). The essentials: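 Coupled SAHH/ThioGlo4 fluorescence read-out (ex 380 nm, em 505 nm) of PRMT3 (0.25 μM) methylation with 30 μM AdoMet and 5 μM SAHH. Buffer was 20 mM Tris pH 7.5 with 0.01% Triton X-100. Run in duplicate.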

SMILES strings stand for the structures. Where two headings read alike, the source gives them in different places.

Sequence of PRMT6 (Q96LA8 whole entry, species assumed): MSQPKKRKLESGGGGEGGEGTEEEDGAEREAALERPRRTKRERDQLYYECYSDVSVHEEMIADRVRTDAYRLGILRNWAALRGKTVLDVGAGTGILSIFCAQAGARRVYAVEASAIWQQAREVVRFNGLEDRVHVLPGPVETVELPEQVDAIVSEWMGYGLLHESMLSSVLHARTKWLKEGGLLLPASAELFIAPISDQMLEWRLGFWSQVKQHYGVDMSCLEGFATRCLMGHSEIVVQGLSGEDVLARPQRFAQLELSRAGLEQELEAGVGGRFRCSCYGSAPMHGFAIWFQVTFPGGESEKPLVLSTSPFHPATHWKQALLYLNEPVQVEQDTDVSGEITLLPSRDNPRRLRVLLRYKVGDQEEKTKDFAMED
Sequence of PRMT3 (Homo sapiens, UniProt O60678) (O60678 211-531): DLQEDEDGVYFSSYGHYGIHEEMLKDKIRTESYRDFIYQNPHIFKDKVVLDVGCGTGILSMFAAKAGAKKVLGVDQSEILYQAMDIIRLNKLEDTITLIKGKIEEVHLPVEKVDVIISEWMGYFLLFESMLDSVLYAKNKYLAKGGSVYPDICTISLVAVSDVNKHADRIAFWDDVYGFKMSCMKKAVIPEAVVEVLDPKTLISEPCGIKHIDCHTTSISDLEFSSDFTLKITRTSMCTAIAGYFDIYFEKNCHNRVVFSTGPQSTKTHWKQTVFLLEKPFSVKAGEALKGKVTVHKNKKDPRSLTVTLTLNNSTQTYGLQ
T2 sequence (Q99873 whole entry, species assumed): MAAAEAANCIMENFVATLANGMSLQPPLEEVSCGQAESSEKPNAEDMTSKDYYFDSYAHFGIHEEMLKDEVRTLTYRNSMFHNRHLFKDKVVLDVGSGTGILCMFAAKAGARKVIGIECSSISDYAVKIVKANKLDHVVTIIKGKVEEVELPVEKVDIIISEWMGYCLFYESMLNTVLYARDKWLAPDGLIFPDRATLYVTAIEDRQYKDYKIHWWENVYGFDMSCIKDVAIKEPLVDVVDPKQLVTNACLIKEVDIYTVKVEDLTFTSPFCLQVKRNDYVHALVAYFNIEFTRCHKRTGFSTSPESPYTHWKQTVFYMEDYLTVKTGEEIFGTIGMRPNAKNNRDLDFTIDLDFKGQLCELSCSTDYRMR
Sequence of PRMT8 (Q9NR22 whole entry, species assumed): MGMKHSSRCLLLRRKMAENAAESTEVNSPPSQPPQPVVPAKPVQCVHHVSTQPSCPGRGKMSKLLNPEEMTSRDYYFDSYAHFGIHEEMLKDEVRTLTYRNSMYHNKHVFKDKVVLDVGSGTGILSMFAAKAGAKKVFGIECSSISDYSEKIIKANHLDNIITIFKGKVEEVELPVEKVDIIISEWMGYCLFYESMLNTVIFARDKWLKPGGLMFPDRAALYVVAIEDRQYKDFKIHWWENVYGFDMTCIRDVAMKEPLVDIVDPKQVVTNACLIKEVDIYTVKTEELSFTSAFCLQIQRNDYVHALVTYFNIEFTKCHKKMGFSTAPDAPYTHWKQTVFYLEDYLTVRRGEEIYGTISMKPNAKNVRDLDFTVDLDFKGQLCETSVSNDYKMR

As to `N=C(NCCCSC[C@H]1O[C@@H](n2cnc3c(N)ncnc32)[C@H](O)[C@@H]1O)Nc1cccc(-c2ccc(F)c(O)c2)c1` [Compound 6l], the inhibition at 10 µM at PRMT4 was 100%; at PRMT6, 97%; against PRMT1, 92%; on PRMT8, 99%; against PRMT3 [2] it was 58%. Further, the half-maximal inhibitory concentration (IC50) in the assay with PRMT3 [1] (read-out: IC50[μM] | PRMT3) worked out at 5.5 ± 1 µM; on PRMT1 (read-out: IC50[μM] | PRMT1), 0.17 ± 0.022 µM.

As for `N=C(NCCCSC[C@H]1O[C@@H](n2cnc3c(N)ncnc32)[C@H](O)[C@@H]1O)Nc1cccc(-c2cncnc2)c1` [Compound 6o], the inhibition at 10 µM stood at 100% at PRMT4; 96% on PRMT6; 102% against PRMT1; 95% on PRMT8; 5% at PRMT3 [2]. The figures for the 50% inhibitory concentration (IC50) in the assay on PRMT3 [1] (read-out: IC50[μM] | PRMT3) and on PRMT1 (read-out: IC50[μM] | PRMT1) were 25 ± 5 µM and 0.45 ± 0.11 µM, respectively.

For the compound `N=C(NCCSC[C@H]1O[C@@H](n2cnc3c(N)ncnc32)[C@H](O)[C@@H]1O)NCc1ccccc1` [Compound 5a], the inhibition at 10 µM on PRMT4 came out at 99%; on PRMT6, 93%; against PRMT1 it was 86%; at PRMT8, 76%; against PRMT3 [2] it was 57%. Besides, the IC50 in the assay with PRMT3 [1] (read-out: IC50 [µM] | PRMT3) came to 33 ± 4.3 µM; at PRMT1 (read-out: IC50[μM] | PRMT1), 1 ± 0.065 µM. Moreover, the “fold decrease in PRMT3 inhibition” value at PRMT3 [2] (1d (2C-atom linker) vs II710) amounted to 3 fold.

With `N=C(NCCSC[C@H]1O[C@@H](n2cnc3c(N)ncnc32)[C@H](O)[C@@H]1O)Nc1cccc(-c2ccc(Cl)cc2)c1` [Compound 6a], the inhibition at 10 µM on PRMT4 is 100%; on PRMT6, 91%; at PRMT1 it was 89%; on PRMT8, 97%; against PRMT3 [2] it was 62%. Besides, the IC50 with PRMT3 [1] (read-out: IC50[μM] | PRMT3) came to 5.9 ± 0.34 µM; on PRMT1 (read-out: IC50[μM] | PRMT1), 0.21 ± 0.054 µM.

Turning to `N=C(NCCCSC[C@H]1O[C@@H](n2cnc3c(N)ncnc32)[C@H](O)[C@@H]1O)Nc1cccc(-c2ccc(C(F)(F)F)cc2)c1` [Compound 6h], the inhibition at 10 µM on PRMT4 came out at 100%; at PRMT6 it was 97%; at PRMT1 it was 88%; on PRMT8, 99%; on PRMT3 [2], 57%. Besides, the figures for the concentration for half-maximal inhibition (IC50) in the assay with PRMT3 [1] (read-out: IC50[μM] | PRMT3) and at PRMT1 (read-out: IC50[μM] | PRMT1) were 5.7 ± 0.68 µM and 0.25 ± 0.051 µM, respectively.

On to `N=C(NCCSC[C@H]1O[C@@H](n2cnc3c(N)ncnc32)[C@H](O)[C@@H]1O)Nc1cccc(-c2ccc(C(F)(F)F)cc2)c1` [Compound 6b], for which the inhibition at 10 µM at PRMT4 is 100%; at PRMT6, 91%; at PRMT1, 83%; on PRMT8, 94%; against PRMT3 [2], 42%. In addition, the IC50 with PRMT3 [1] (read-out: IC50[μM] | PRMT3) was found to be 12 ± 0.83 µM; at PRMT1 (read-out: IC50[μM] | PRMT1), 1.8 ± 0.17 µM.

In the case of `Nc1ncnc2c1ncn2[C@@H]1O[C@H](CSCCNC(=O)Nc2ccc(F)cc2)[C@@H](O)[C@H]1O` [Compound 7j, 1-(2-((((2S,3S,4R,5R)-5-(6-amino-9H-purin-9-yl)-3,4-dihydroxytetrahydrofuran-2-yl)methyl)thio)ethyl)-3-(4-fluorophenyl)urea], the inhibition at 10 µM at PRMT4 was 88%; at PRMT6, 17%; against PRMT1 it was 17%; on PRMT8, 1%; on PRMT3 [2], 78%. Further, the IC50 in the assay with PRMT3 [1] (read-out: IC50 [µM] | PRMT3) was determined as 2 ± 0.23 µM. Also, the “PRMT6 inhibition” value at PRMT6 is “inactive to PRMT6”. In addition, the “fold reduction of PRMT3 inhibition vs YD1113” value on PRMT3 [2] came to 4 fold.

As to `N=C(NCCSC[C@H]1O[C@@H](n2cnc3c(N)ncnc32)[C@H](O)[C@@H]1O)Nc1cccc(-c2ccoc2)c1` [Compound 6c], the inhibition at 10 µM on PRMT4 was found to be 100%; at PRMT6 it was 76%; against PRMT1 it was 84%; at PRMT8, 82%; against PRMT3 [2] it was 48%. In addition, the concentration for half-maximal inhibition (IC50) in the assay with PRMT3 [1] (read-out: IC50[μM] | PRMT3) is 8.3 ± 0.34 µM; at PRMT1 (read-out: IC50[μM] | PRMT1), 1.5 ± 0.12 µM.

As for `N=C(NCCSC[C@H]1O[C@@H](n2cnc3c(N)ncnc32)[C@H](O)[C@@H]1O)Nc1cccc(I)c1` [Compound 5c], the inhibition at 10 µM at PRMT4 worked out at 100%; on PRMT6 it was 98%; against PRMT1, 95%; on PRMT8 it was 99%; at PRMT3 [2], 38%. The IC50 is 8.68 ± 2.9 µM in the assay on PRMT3 [1] (read-out: IC50[μM] | PRMT3) and 0.13 ± 0.006 µM on PRMT1 (read-out: IC50[μM] | PRMT1).

Take `N=C(NCCCSC[C@H]1O[C@@H](n2cnc3c(N)ncnc32)[C@H](O)[C@@H]1O)Nc1cccc(-c2ccc(Cl)cc2)c1` [Compound 6f]: the inhibition at 10 µM at PRMT4 turned out to be 100%; on PRMT6, 97%; against PRMT1 it was 92%; on PRMT8, 100%; on PRMT3 [2], 76%. Also, the results for the IC50 in the assay on PRMT3 [1] (read-out: IC50[μM] | PRMT3) and at PRMT1 (read-out: IC50[μM] | PRMT1) were 1.8 ± 0.23 µM and 0.2 ± 0.031 µM, respectively.

Consider `Nc1ncnc2c1ncn2[C@@H]1O[C@H](CSCCNC(=O)Nc2ccccc2)[C@@H](O)[C@H]1O` [Compound 7f, 1-(2-((((2S,3S,4R,5R)-5-(6-amino-9H-purin-9-yl)-3,4-dihydroxytetrahydrofuran-2-yl)methyl)thio)ethyl)-3-phenylurea], for which the inhibition at 10 µM on PRMT4 worked out at 84%; on PRMT6, 28%; at PRMT1 it was 9%; at PRMT8, 12%; on PRMT3 [2], 86%. Moreover, the IC50 in the assay on PRMT3 [1] (read-out: IC50 [µM] | PRMT3) turned out to be 1.9 ± 0.12 µM. Besides, the “PRMT6 inhibition” value at PRMT6 was “inactive to PRMT6”. Also, the “fold reduction of PRMT3 inhibition vs YD1113” value at PRMT3 [2] was 4 fold.

Regarding `Nc1ncnc2c1ncn2[C@@H]1O[C@H](CSCCCNCc2cccc(-c3ccc(F)c(O)c3)c2)[C@@H](O)[C@H]1O` [Compound 10r], the inhibition at 10 µM was 95% on PRMT4; 74% at PRMT6; 52% against PRMT1; 72% at PRMT8; 22% against PRMT3 [2].

As for `Nc1ncnc2c1ncn2[C@@H]1O[C@H](CSCCNC(=O)Nc2ccccc2Br)[C@@H](O)[C@H]1O` [Compound 7m], the inhibition at 10 µM worked out at 81% at PRMT4; 11% at PRMT6; 10% against PRMT1; 13% on PRMT8; 55% on PRMT3 [2].

Consider `Nc1ncnc2c1ncn2[C@@H]1O[C@H](CSCCCNCc2cccc(-c3ccc(C(F)(F)F)cc3)c2)[C@@H](O)[C@H]1O` [Compound 10o], for which the inhibition at 10 µM on PRMT4 turned out to be 97%; at PRMT6, 37%; against PRMT1 it was 71%; at PRMT8, 65%; at PRMT3 [2], 24%.

With `N=C(NCCCSC[C@H]1O[C@@H](n2cnc3c(NCCCc4ccccc4)ncnc32)[C@H](O)[C@@H]1O)NCC1CC1` [Compound 19f], the inhibition at 10 µM on PRMT4 was 36%; at PRMT6 it was 88%; against PRMT1 it was 76%; on PRMT8, 74%; at PRMT3 [2], 3%. The concentration for half-maximal inhibition (IC50) on PRMT1 (read-out: IC50 FOR PRMT1) was found to be 0.92 ± 0.091 µM.

As to `Nc1ncnc2c1ncn2[C@@H]1O[C@H](CSCCCNCc2cccc(-c3ccoc3)c2)[C@@H](O)[C@H]1O` [Compound 10p], the inhibition at 10 µM on PRMT4 came out at 99%; on PRMT6 it was 66%; on PRMT1 it was 54%; at PRMT8, 54%; on PRMT3 [2], 25%.

The inhibition is the relative decrease from the control value, in per cent. Usually IC50 stands for the concentration needed to halve the response being measured.

The values are drawn from US20260306527A1, “PRMT INHIBITOR COMPOUNDS AND THE USES THEREOF” (Purdue Research Foundation, priority 2023, published 2026).
